This note sets out measurements from patent publication US8119569B2, “Benzoylpyrazole compounds, process for their production and herbicides containing them” (Ishihara Sangyo Kaisha, Ltd., priority 2006, dated 2012).

Common to all, as to assay type: in vivo
Assay [1] deals with green foxtail (Setaria viridis L.). Nature of the assay: Test Example 3: foliar treatment, comparison with reference compounds. The note with it: Setaria viridis, 17th day after application, 4.0 to 4.5 leaf stage, read-out: Growth inhibition rate (%) (17th day after application) Green foxtail. From the text:
(§1) Upland field soil was put into a 1/1,000,000 hectare pot, and seeds of various plants were sown. […] The spray solutions thus prepared were applied for foliar treatment by a small sprayer.

Assay [2] concerns corn (Zea mays L.). The description is as above. The following applies: Zea mays, 21st day after application, 4.0 to 4.3 leaf stage, crop, read-out: Growth inhibition rate (%) (21st day after application) Corn.
Text: as §1

In assay [3] the test system is velvetleaf (Abutilon theophrasti MEDIC.). The assay is described as above. The following applies: Abutilon theophrasti, 22nd day after application, 3.3 to 4.3 leaf stage, read-out: Growth inhibition rate (%) (22nd day after application) Velvet leaf.
Text: as §1

Assay [4] has as its system guineagrass (Panicum maximum Jacq.). Described as above. The following applies: Megathyrsus maximus, 18th day after application, 3.5 to 4.3 leaf stage, read-out: Growth inhibition rate (%) (18th day after application) Guineagrass.
Text: as §1

Assay [5] concerns prickly sida (Sida spinosa L.). Nature of the assay: Test Example 2: soil application on the day after sowing. The note with it: 250 g/ha, 19th to 22nd day after application. From the text:
(§2) Upland field soil was put into a 1/170,000 hectare pot, and seeds of various plants (barnyardgrass (Echinochloa crus-galli L.), crabgrass (Digitaria sanguinalis L.), green foxtail (Setaria viridis L.), redroot pigweed (Amaranthus retroflexus L.), prickly sida (Sida spinosa L.), velvetleaf (Abutilon theophrasti MEDIC.), rice (oryza sativa L.), corn (Zea mays L.) and soybean (Glycine max Merr.)) were sown. On the day after sowing, wettable powders or emulsifiable concentrates of the compounds of the present invention prepared in accordance with a conventional preparation method, were weighed so that the active ingredients became the prescribed amounts, and diluted with water in an amount corresponding to 500 liter per 1 hectare, followed by soil application with a small sprayer.

For assay [6], the system named is soybean (Glycine max Merr.). The assay is described as above. The following applies: 250 g/ha, 19th to 22nd day after application, crop.
Text: as §2

Assay [7] deals with green foxtail (Setaria viridis L.). The description is as above. The following applies: 250 g/ha, 19th to 22nd day after application.
Text: as §2

For assay [8], the system named is redroot pigweed (Amaranthus retroflexus L.). The description is as above. The following applies: 250 g/ha, 19th to 22nd day after application.
Text: as §2

The test system of assay [9] is corn (Zea mays L.). Described as above. The note with it: 250 g/ha, 19th to 22nd day after application, crop.
Text: as §2

Assay [10] has as its system crabgrass (Digitaria sanguinalis L.). The assay is described as above. The note with it: 250 g/ha, 19th to 22nd day after application.
Text: as §2

Assay [11] relates to rice (Oryza sativa L.). The description is as above. The note with it: 250 g/ha, 19th to 22nd day after application, crop.
Text: as §2

Assay [12] concerns barnyardgrass (Echinochloa crus-galli L.). The assay is described as above. The note with it: 250 g/ha, 19th to 22nd day after application.
Text: as §2

For assay [13], the system named is velvetleaf (Abutilon theophrasti MEDIC.). The assay is described as above. The note with it: 250 g/ha, 19th to 22nd day after application.
Text: as §2

Assay [14] concerns prickly sida (Sida spinosa L.). Nature of the assay: Test Example 1: foliar treatment, upland pot. The note with it: 7 g/ha, 21st day after application. From the text: (§3) Upland field soil was put into a 1/170,000 hectare pot, and seeds of various plants were sown. When the respective plants reached predetermined leaf stage ((1) barnyardgrass (Echinochloa crus-galli L.): 1.0 to 3.3 leaf stage, (2) crabgrass (Digitaria sanguinalis L.): 1.2 to 3.0 leaf stage, (3) green foxtail (Setaria viridis L.): 1.5 to 3.3 leaf stage, (4) redroot pigweed (Amaranthus retroflexus L.): 0.1 to 2.0 leaf stage, (5) prickly sida (Sida spinosa L.): cotyledon stage to 2.0 leaf stage, (6) velvetleaf (Abutilon theophrasti MEDIC.): 0.1 to 2.0 leaf stage, (7) rice (Oryza sativa L.): 1.3 to 3.0 leaf stage, (8) corn (Zea mays L.): 2.5 to 3.4 leaf stage, and (9) soybean (Glycine max Merr.): primary leaf stage to 0.3 leaf stage), wettable powders or emulsifiable concentrates of the compounds of the present invention prepared in accordance with a conventional preparation method, were weighed so that the active ingredients became the prescribed amounts, and diluted with water in an amount corresponding to 500 liter per 1 hectare (containing 0.1 vol % of an agricultural spreader (“KUSARINOH”, manufactured by NIHON NOHYAKU CO., LTD.)). The spray solutions thus prepared were applied for foliar treatment by a small sprayer.

Assay [15] relates to soybean (Glycine max Merr.). Nature of the assay: Test Example 1: foliar treatment, upland pot. The note with it: 7 g/ha, 21st day after application, crop.
Text: as §3

The test system of assay [16] is green foxtail (Setaria viridis L.). Nature of the assay: Test Example 1: foliar treatment, upland pot. The note with it: 7 g/ha, 21st day after application.
Text: as §3

Assay [17] deals with redroot pigweed (Amaranthus retroflexus L.). Nature of the assay: Test Example 1: foliar treatment, upland pot. The following applies: 7 g/ha, 21st day after application.
Text: as §3

For assay [18], the system named is corn (Zea mays L.). Nature of the assay: Test Example 1: foliar treatment, upland pot. The following applies: 7 g/ha, 21st day after application, crop.
Text: as §3

Assay [19] has as its system crabgrass (Digitaria sanguinalis L.). Nature of the assay: Test Example 1: foliar treatment, upland pot. The note with it: 7 g/ha, 21st day after application.
Text: as §3

Assay [20] relates to rice (Oryza sativa L.). Nature of the assay: Test Example 1: foliar treatment, upland pot. The note with it: 7 g/ha, 21st day after application, crop.
Text: as §3

The test system of assay [21] is barnyardgrass (Echinochloa crus-galli L.). Nature of the assay: Test Example 1: foliar treatment, upland pot. The note with it: 7 g/ha, 21st day after application.
Text: as §3

The subject of assay [22] is velvetleaf (Abutilon theophrasti MEDIC.). Nature of the assay: Test Example 1: foliar treatment, upland pot. The note with it: 7 g/ha, 21st day after application. From the text:
Upland field soil was put into a 1/170,000 hectare pot, and seeds of various plants were sown. […] The spray solutions thus prepared were applied for foliar treatment by a small sprayer.

Assay [23] has as its system barnyardgrass (Echinochloa oryzicola vasing.). Nature of the assay: Test Example 4: paddy field pot, water application. The following applies: 63 g/ha, 14th day after application. From the text:
(§4) Paddy field soil was put into a 1/1,000,000 hectare pot, and seeds of barnyardgrass (Echinochloa oryzicola vasing.) and Japanese bulrush (Scirpus juncoides) were sown and lightly covered with soil. Then, pot was left to stand in a greenhouse in a state irrigated to a water depth of from 0.5 to 1 cm, and next day or two days later, tubers of Japanese ribbon waparo (Sagittaria pygmaea) were planted. Then, the irrigated water depth was maintained to be from 3 to 4 cm, and when barnyardgrass and Japanese bulrush reached 0.5 leaf stage, and Japanese ribbon waparo reached primary leaf stage, a water diluted solution of a wettable powder or an emulsifieable concentrate of the compound of the present invention prepared in accordance with a conventional preparation method, was uniformly dropwise applied by a pipette so that the amount of active ingredients would be a prescribed amount. Further, paddy field soil was put into a 1/1,000,000 pot, followed by soil puddling to an irrigated water depth of from 3 to 4 cm. Next day, rice (Oryza sativa L.) (var.: Nihonbare) of two leaf stage was transplanted in a transplantation depth of 3 cm. On the 4th day after transplantation, the compound of the present invention was applied in the same manner as described above.

In assay [24] the test system is Japanese ribbon waparo (Sagittaria pygmaea). Nature of the assay: Test Example 4: paddy field pot, water application. The following applies: 63 g/ha, 14th day after application.
Text: as §4

The subject of assay [25] is Japanese bulrush (Scirpus juncoides). Nature of the assay: Test Example 4: paddy field pot, water application. The note with it: 63 g/ha, 14th day after application.
Text: as §4

The test system of assay [26] is rice (Oryza sativa L.) (var.: Nihonbare). Nature of the assay: Test Example 4: paddy field pot, water application, transplanted rice. The following applies: 63 g/ha, 21st day after application, crop.
Text: as §4

One may read the inhibition as the relative decrease from the control value, in per cent. As to `COCCOc1c(S(C)(=O)=O)ccc(C(=O)c2cnn(C(C)C)c2O)c1Cl` [Reference Compound 2], in assay [1], the inhibition at 3.5 g/ha came to 30% and the inhibition at 7 g/ha stood at 45%. Also, in [2], the inhibition at 120 g/ha is 28%. The inhibition at 15 g/ha in assay [3] was 40%. For the same molecule, the inhibition at 3.5 g/ha in [4] was determined as 0%.
Turning to `CCOC(=O)OC(C)Oc1c(C(=O)c2ccc(S(C)(=O)=O)c(COC)c2C)cnn1C` (racemic) [compound 7], the “Growth inhibition rate (%) Prickly sida” value in [5] and in [14] was 80% throughout. The figures for the “Growth inhibition rate (%) Soybean” value in [6] and in [15] were 0% and 95%, respectively. In addition, the “Growth inhibition rate (%) Green foxtail” value was found to be 40% in assay [7] and 90% in assay [16]. Besides, the entries for the “Growth inhibition rate (%) Redroot pigweed” value in assay [8] and in assay [17] were 80% and 85%, respectively. Further, the “Growth inhibition rate (%) Corn” value in assay [9] and in [18] was 0% each time. Besides, the “Growth inhibition rate (%) Crabgrass” value in assay [10] and in [19] was 90% each time. The “Growth inhibition rate (%) Rice” value in assay [11] was 90%; in assay [20], 70%; in [26], 70%. For the same molecule, the results for the “Growth inhibition rate (%) Barnyardgrass” value in assay [12], in assay [21] and in [23] were 100%, 95% and 100%, respectively. In addition, the “Growth inhibition rate (%) Velvetleaf” value in assay [13] was 70%; in assay [22], 98%. Also, the “Growth inhibition rate (%) Japanese ribbon waparo” value in [24] stood at 60%. Also, the “Growth inhibition rate (%) Japanese bulrush” value in [25] came out at 70%.
Turning to `CCOC(=O)OC(C)Oc1c(C(=O)c2ccc(S(C)(=O)=O)c(OCCOC)c2C)cnn1CC` (racemic) [compound 3], the “Growth inhibition rate (%) Prickly sida” value in assay [5] was found to be 50%; in assay [14] it was 10%. The “Growth inhibition rate (%) Soybean” value was found to be 20% in [6] and 70% in assay [15]. Moreover, the “Growth inhibition rate (%) Green foxtail” value in [7] and in [16] was 100% throughout. In addition, the “Growth inhibition rate (%) Redroot pigweed” value in [8] was 100%; in [17] it was 90%. The “Growth inhibition rate (%) Corn” value in assay [9] and in assay [18] was 0% throughout. In addition, the “Growth inhibition rate (%) Crabgrass” value in [10] was 100%; in assay [19] it was 95%. Besides, the “Growth inhibition rate (%) Rice” value in assay [11] was 100%; in assay [20], 80%; in assay [26], 40%. For the same molecule, the “Growth inhibition rate (%) Barnyardgrass” value in assay [12] is 100%; in assay [21], 95%; in [23], 100%. In addition, the “Growth inhibition rate (%) Velvetleaf” value in [13] was 80%; in [22] it was 90%. Further, in assay [24], the “Growth inhibition rate (%) Japanese ribbon waparo” value is recorded as 90%. In addition, the “Growth inhibition rate (%) Japanese bulrush” value in assay [25] is on record as 95%.
For the molecule `CCn1ncc(C(=O)c2ccc(S(C)(=O)=O)c(OCCOC)c2Cl)c1O` [Reference Compound 1], in assay [1], the inhibition at 3.5 g/ha came to 35% and the inhibition at 7 g/ha is 55%. Moreover, the inhibition at 15 g/ha in assay [3] is 20%. Moreover, the inhibition at 3.5 g/ha in assay [4] is 0%.
Regarding `CCCOC(=O)OC(C)Oc1c(C(=O)c2ccc(S(C)(=O)=O)c(OCCOC)c2C)cnn1C` (racemic) [compound 19], the “Growth inhibition rate (%) Prickly sida” value in assay [5] was 60%; in assay [14], 30%. Moreover, the “Growth inhibition rate (%) Soybean” value was 40% in assay [6] and 80% in [15]. Further, the “Growth inhibition rate (%) Green foxtail” value in assay [7] and in assay [16] was 100% in each case. The “Growth inhibition rate (%) Redroot pigweed” value in [8] is reported as 100%; in [17], 95%. For the same molecule, the “Growth inhibition rate (%) Corn” value in [9] and in [18] was 0% in each case. Besides, the “Growth inhibition rate (%) Crabgrass” value is 100% in assay [10] and 90% in assay [19]. Besides, the results for the “Growth inhibition rate (%) Rice” value in assay [11], in assay [20] and in assay [26] were 100%, 80% and 20%, respectively. Also, the “Growth inhibition rate (%) Barnyardgrass” value in assay [12] is given as 100%; in assay [21], 95%; in assay [23], 100%. The “Growth inhibition rate (%) Velvetleaf” value was determined as 98% in assay [13] and 95% in assay [22]. The “Growth inhibition rate (%) Japanese ribbon waparo” value in [24] is 95%. Further, in assay [25], the “Growth inhibition rate (%) Japanese bulrush” value was 95%.
